Common to all, as to assay: Cell proliferation assay (MTS)
Type in all cases: cell-based, human

Experiment [1] concerns H1703.
Description: (§1) The sensitivity of a panel of human cancer cell lines to the effects of compounds was determined in a standard proliferation assay. Cell lines were sourced through the AstraZeneca Cell Bank.
(§2) Cells were plated in 96 well plates at densities of 1000-6000 cells per well in RPMI media containing 10% FBS. After incubation at 37° C. for 16 hours, various concentrations of compound were added to the assay plates. After incubation for an additional 72 h, the viable cells were determined by the addition of MTS reagent (Promega #3582) to each well for 2 h. MTS is a tetrazolium salt that is bioreduced by metabolically active cells in the presence of an electron coupling reagent to formazan. The formazan product was then quantitated by absorbance at 490 nm, as an indicator of the relative number of live cells. In order to determine the GI50 (concentration at which growth of cells was inhibited by 50%) the relative number of cells present at the time of drug addition was determined by comparison with the MTS readout before the drug was added, and this value was subtracted from the 72 hr value of untreated cells as a measure of cell growth during the assay.
Experiment [2] concerns HCC1419.
Description: (§3) The sensitivity of a panel of human cancer cell lines to the effects of compounds was determined in a standard proliferation assay.
as §2
Experiment [3] has as its system PANC0203.
Description: as §3
(§4) Cells were plated in 96 well plates at densities of 1000-6000 cells per well in RPMI media containing 10% FBS. After incubation at 37° C. for 16 hours, various concentrations of compound were added to the assay plates. After incubation for an additional 72 h, the viable cells were determined by the addition of MTS reagent (Promega #3582) to each well for 2 h. […] The formazan product was then quantitated by absorbance at 490 nm, as an indicator of the relative number of live cells. In order to determine the GI50 (concentration at which growth of cells was inhibited by 50%) the relative number of cells present at the time of drug addition was determined by comparison with the MTS readout before the drug was added, and this value was subtracted from the 72 hr value of untreated cells as a measure of cell growth during the assay.
Experiment [4] relates to SKCO1.
Description: as §3, §4
Experiment [5] deals with CALU3.
Description: as §1, §4
Experiment [6] deals with HCC1569.
Description: as §1, §4
In experiment [7] the test system is UMUC3.
Description: as §3, §2
In experiment [8] the test system is H1793.
Description: as §3, §2
The subject of experiment [9] is 1A6.
Description: as §3, §2
Experiment [10] concerns HLF.
Description: as §1, §2
The subject of experiment [11] is PC9.
Description: as §3, §2
Experiment [12] concerns SNU398.
Description: as §3, §4
Setting [13] is: Homo sapiens, Breast, PIK3CA WT.
[14] abbreviates: Homo sapiens, Bladder, PIK3CA WT.

As to `CCn1nc(C2CCN(C(=O)CCO)CC2)nc1-c1cnc(N)c(-c2nnc(C(C)(C)C)o2)n1` [Example 3, 1-(4-(5-(5-amino-6-(5-tert-butyl-1,3,4-oxadiazol-2-yl)pyrazin-2-yl)-1-ethyl-1H-1,2,4-triazol-3-yl)piperidin-1-yl)-3-hydroxypropan-1-one], the Category result in experiment [1] was “Sensitive (sensitive (GI50<=1.0 μM))”; in [2], “Sensitive (sensitive (GI50<=1.0 μM))”; in experiment [3], “Sensitive (sensitive (GI50<=1.0 μM))”; in experiment [4], “Resistant (resistant (GI50>1.0 μM))”; in experiment [5], “Resistant (resistant (GI50>1.0 μM))”; in experiment [6], “Resistant (resistant (GI50>1.0 μM))”. Further, the Category entry in experiment [7], in experiment [8], in experiment [9], in [10], in [11] and in experiment [12] was “Resistant (resistant (GI50>1.0 μM))” each time. In addition, the GI50 stood at 0.514 µM in [1] (Homo sapiens, NCI-H1703, Lung, PIK3CA WT); 0.78 µM in experiment [2] (setting [13]); 0.963 µM in experiment [3] (Homo sapiens, Panc 02.03, Pancreas, PIK3CA WT); 1.13 µM in experiment [4] (Homo sapiens, SK-CO-1, Colon, PIK3CA WT); 1.3 µM in experiment [5] (Homo sapiens, Calu-3, Lung, PIK3CA WT); 1.37 µM in experiment [6] (setting [13]). For the same molecule, the concentration for 50% growth inhibition (GI50) stood at 6.22 µM in experiment [7] (setting [14]); 7.33 µM in experiment [8] (Homo sapiens, NCI-H1793, Lung, PIK3CA WT); 30 µM in experiment [9] (setting [14]); 30 µM in experiment [10] (Homo sapiens, Liver, PIK3CA WT); 30 µM in [11] (Homo sapiens, PC-9, Lung, PIK3CA WT); 30 µM in experiment [12] (Homo sapiens, SNU-398, Liver, PIK3CA WT).

As a reminder, the GI50 is the concentration at which growth is held to half of that of the control. Lower therefore signals greater sensitivity of the cells.
